Drawing on ChEMBL document CHEMBL1127921, “Synthesis and study of a non macrocyclic FK506 derivative” (Bioorg Med Chem Lett, 1994), this text covers Ki for 2 molecules.

The experiment concerns the target Peptidyl-prolyl cis-trans isomerase FKBP1A (Homo sapiens, UniProt P62942). The experiment is described as follows: Binding affinity towards immunophilin cytosolic protein FK506 binding protein 12 was determined.

Peptidyl-prolyl cis-trans isomerase FKBP1A, sequence (P62942 whole entry): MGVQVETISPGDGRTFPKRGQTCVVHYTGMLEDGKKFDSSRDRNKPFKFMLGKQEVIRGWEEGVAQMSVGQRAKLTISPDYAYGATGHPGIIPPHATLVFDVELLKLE

The Ki is the equilibrium dissociation constant of an inhibitor or competing ligand from its target. `C=CCC(CC=C)C(=O)C[C@H](O)[C@@H](C)[C@H](OC(=O)[C@@H]1CCCCN1C(=O)C(=O)[C@]1(O)O[C@H]([C@H](/C=C\C)OC)CC[C@H]1C)[C@H](C)C[C@@H]1CC[C@@H](O)[C@H](OC)C1` returned a Ki of 0.207 µM.
The result for `CCC[C@H](/C=C(\C)C[C@H](C)C[C@H](OC)[C@H]1O[C@@](O)(C(=O)C(=O)N2CCCC[C@H]2C(=O)O[C@H](/C(C)=C/[C@@H]2CC[C@@H](O)[C@H](OC)C2)C(C)C)[C@H](C)C[C@@H]1OC)C(C)=O` reads 0.4 µM.
